Tested on: OVCAR8 cells and OVCAR8-ADR cells
Assay: Docetaxel dose-response (MTT), resistant versus parental line
Assay type: cell-based, human
Details: docetaxel three days, FIG. 13
Protocol: OVCAR8 cells (triangles) and OVCAR8-ADR (squares) cells (docetaxel-resistant derivative of OVCAR8) cells were treated with docetaxel at indicated doses for three days and subjected to the MTT assay. Cell viabilities were compared to the respective no drug controls. The OVCAR8-ADR cell line has a ˜3-fold higher IC50 than the parental OVCAR8 cell line. Data represent the mean±SD (n=3).
For the MTT assay, 100 μl of MTT (3-(4,5-dimethylthiazol-2-yl)-2,5-diphenyltetrazolium bromide) solution (Sigma) was added to the cell cultures in 96-well plates and incubated at 37° C. with 5% CO2 for 2 hours. Viable cells convert the soluble MTT salt to insoluble blue formazan crystals. Formazan crystals formed were dissolved with 100 μl of solubilization buffer at 37° C. The absorbance of the solubilized formazan was measured at an optical density (OD) of 570 nm (along with the reference OD at 650 nm) using a Synergy H1 Microplate Reader (BioTek). For the trypan blue exclusion assay, cells were trypsinized and stained with 0.4% trypan blue dye solution (Sigma). Viable cells were counted in four different fields of a hemacytometer under microscopy.

Structure (SMILES): CC(=O)O[C@@]12CO[C@@H]1C[C@H](O)[C@@]1(C)C(=O)[C@H](O)C3=C(C)[C@@H](OC(=O)[C@H](O)[C@@H](NC(=O)OC(C)(C)C)c4ccccc4)C[C@@](O)([C@@H](OC(=O)c4ccccc4)[C@H]21)C3(C)C [docetaxel]
- IC50 of OVCAR8-ADR relative to parental OVCAR8: ~3 fold

Reference: patent US20170369878A1, “MICRORNA COMBINATIONS FOR ANTI-CANCER THERAPEUTICS” (Massachusetts Institute of Technology, priority 2015, published 2017)
